Laboratory results: patent US8772251B2, “Use of isothiocyanate derivatives as anti-myeloma agents” (Indena S.p.A., priority 2008, dated 2014)
Where two headings read alike, the source gives them in different places.

Columns and labels:
[1] = system: H460 human lung tumor cell line; experiment: Sensitivity of H460 cells to glucomoringin with or without myrosinase (cell growth relative to control); assay type: cell-based; details: GMG 100 μM, no MYR
[2] = system: human myeloma tumor cell lines s.c. transplanted; experiment: Antitumor activity in vivo in SCID mice bearing s.c. transplanted human myeloma
From the text: In the table 3 is reported the antitumor activity of the GMG-ITC administered in vivo in SCID mice bearing human myeloma tumor cell lines s.c. transplanted.

[3] = system: A2780; experiment: Cytotoxic activity, cell count (24 h); assay type: cell-based
From the text: (§1) Cytotoxic activity of the Moringa derived isothiocyanate (GMG-ITC) on a panel of human tumor cell lines.

[4] = system: H460 S5; experiment: Cytotoxic activity, cell count (24 h); assay type: cell-based; details: Homo sapiens, read-out: Cell count (24 h) IC50
From the text: as §1

[5] = system: H460 wt; experiment: Cytotoxic activity, cell count (24 h); assay type: cell-based; details: Homo sapiens, read-out: Cell count (24 h) IC50
From the text: as §1

[6] = system: HCT116 p53+/+; experiment: Cytotoxic activity, cell count (24 h); assay type: cell-based; details: Homo sapiens, read-out: Cell count (24 h) IC50
From the text: as §1

[7] = system: HCT116 p53−/−; experiment: Cytotoxic activity, cell count (24 h); assay type: cell-based; details: Homo sapiens, read-out: Cell count (24 h) IC50
From the text: as §1

[8] = system: HL60; experiment: Cytotoxic activity, cell count (24 h); assay type: cell-based; details: Homo sapiens, read-out: Cell count (24 h) IC50
From the text: as §1

[9] = system: MCF7 NEO; experiment: Cytotoxic activity, cell count (24 h); assay type: cell-based; details: Homo sapiens, read-out: Cell count (24 h) IC50
From the text: as §1

[10] = system: MCF7 π; experiment: Cytotoxic activity, cell count (24 h); assay type: cell-based; details: Homo sapiens, read-out: Cell count (24 h) IC50
From the text: as §1

[11] = system: RPMI-8226; experiment: Cytotoxic activity, cell count (24 h); assay type: cell-based; details: Homo sapiens, read-out: Cell count (24 h) IC50
From the text: as §1

[12] = system: human ovarian carcinoma A2780; experiment: Antitumor activity in vivo against human ovarian carcinoma A2780

With `C[C@@H]1O[C@@H](Oc2ccc(C/C(=N/OS(=O)(=O)O)S[C@@H]3O[C@H](CO)[C@@H](O)[C@H](O)[C@H]3O)cc2)[C@H](O)[C@H](O)[C@H]1O` [GMG, glucomoringin] the “% of cells growth relative to control” value ([1]; 24 h recovery) was 100%, the “% of cells growth relative to control” value ([1]; 24 h treatment) was 98% and the “% of cells growth relative to control” value ([1]; 48 h recovery) was 100%. The “% of cells growth relative to control” value ([1]; time 0) was 100% and the TWI % ([2]; p.o. q5dx2, 400 mg/kg/inj.) was 62%.

Compound `C[S+]([O-])CCCCN=C=S` (centres unmarked) [GRA, sulphorafane, reference compound] has an IC50 ([3]; Homo sapiens, A2780, 24 h; read-out: Cell count (24 h) IC50) of 18 ± 1 µM, an IC50 ([4]; NCI-H460, H460 S5, 24 h) of 19 ± 1 µM and an IC50 ([5]; NCI-H460, H460 wt, 24 h) of 29 ± 0.5 µM. The IC50 ([6]; HCT-116, HCT116 p53+/+, 24 h) was 17 ± 2.3 µM, the IC50 ([7]; HCT-116, HCT116 p53−/−, 24 h) was 18 ± 5.3 µM and the IC50 ([8]; HL-60, HL60, 24 h) was 16 ± 1 µM. The IC50 ([9]; MCF7 NEO, 24 h) was 26 ± 4 µM, the IC50 ([10]; MCF7 π, 24 h) was 27 ± 4 µM and the IC50 ([11]; RPMI-8226 (myeloma), 24 h) was 8 ± 0.2 µM.

With `CC1OC(Oc2ccc(CN=C=S)cc2)C(O)C(O)C1O` (centres unmarked) [GMG-ITC] the IC50 ([3]; Homo sapiens, A2780, 24 h, read-out: Cell count (24 h) IC50) was 15 ± 3 µM, the IC50 ([4]; NCI-H460, 24 h) was 18 ± 6.7 µM and the IC50 ([5]; NCI-H460, 24 h) was 29 ± 0.8 µM. For the same compound, the IC50 ([6]; HCT-116, 24 h) was 12 ± 0.3 µM, the IC50 ([7]; HCT-116, 24 h) was 13 ± 0.25 µM and the IC50 ([8]; HL-60, 24 h) was 15 ± 1 µM. It also gave an IC50 ([9]; MCF7, 24 h) of 20 ± 4.4 µM, an IC50 ([10]; MCF7, 24 h) of 21 ± 5.7 µM and an IC50 ([11]; RPMI-8226, 24 h) of 6 ± 1 µM. The TWI % ([2]; i.p. q5dx2w, 20 mg/kg/inj.) was 70%, the antitumor activity [12] was “low” and the TWI % ([12]; i.p. q5dx2w, 20 mg/kg/inj.) was 46%.
